According to patent US10947271B2, “Antibacterial agents” (THE UNIVERSITY OF QUEENSLAND, priority 2014, dated 2021):

Key:
Format in all cases: cell-based
Settings in all cases: 24 h incubation, visual reading
[1] = system: Staphylococcus aureus MRSA ATCC 43300; experiment: MIC assay, S. aureus MRSA ATCC 43300
Method in brief: (§1)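 Overnight MHB cultures at 37° C were diluted 40-fold and grown 2-3 hrs to mid-log, then added at 5×10e5 CFU/mL to twofold compound dilutions (8 to 0.003 μg/ml). Plates were incubated 24 h at 37° C and MIC scored by eye.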

[2] = system: Streptococcus pneumoniae MDR ATCC 700677; experiment: MIC assay, S. pneumoniae MDR ATCC 700677
Method in brief: as §1

[3] = system: Enterococcus faecium MDR Van A ATCC 51559; experiment: MIC assay, E. faecium MDR Van A ATCC 51559
Method in brief: as §1

Row | Compound | Minimum Inhibitory Concentration (MIC) Staph. aureus ATCC43300 [1] | Minimum Inhibitory Concentration (MIC) S. pneumoniae ATCC 700677 [2] | Minimum Inhibitory Concentration (MIC) E. faecium ATCC51559 [3]
1 | CCCCCCCC(=O)N[C@@H](CCCCN)C(=O)N[C@@H](CCCCN)C(=O)NCCNC(=O)[C@H]1NC(=O)[C@H]2NC(=O)[C@H](NC(=O)[C@@H]3NC(=O)[C@H](CC(N)=O)NC(=O)[C@H](NC(=O)[C@@H](CC(C)C)NC)[C@H](O)c4ccc(c(Cl)c4)Oc4cc3cc(c4O[C@@H]3O[C@H](CO)[C@@H](O)[C@H](O)[C@H]3O[C@H]3C[C@](C)(N)[C@H](O)[C@H](C)O3)Oc3ccc(cc3Cl)[C@H]2O)c2ccc(O)c(c2)-c2c(O)cc(O)cc21 [MCC_005164] | xxx (xxx = 0.1-<1) | xxx (xxx = 0.1-<1) | x (x = >4)
2 | CCCCCCCCCCCN1CCC(C(=O)N[C@@H](CCCCN)C(=O)N[C@@H](CCCCN)C(=O)N[C@@H](CCCCNC(=O)[C@H]2NC(=O)[C@H]3NC(=O)[C@H](NC(=O)[C@@H]4NC(=O)[C@H](CC(N)=O)NC(=O)[C@H](NC(=O)[C@@H](CC(C)C)NC)[C@H](O)c5ccc(c(Cl)c5)Oc5cc4cc(c5O[C@@H]4O[C@H](CO)[C@@H](O)[C@H](O)[C@H]4O[C@H]4C[C@](C)(N)[C@H](O)[C@H](C)O4)Oc4ccc(cc4Cl)[C@H]3O)c3ccc(O)c(c3)-c3c(O)cc(O)cc32)C(N)=O)CC1 [MCC_004818] | xxxx (xxxx = 0.01-<0.1) | xxxx (xxxx = 0.01-<0.1) | xxx (xxx = 0.1-<1)
3 | CNC(=O)[C@H](CCCCNC(=O)[C@H]1NC(=O)[C@H]2NC(=O)[C@H](NC(=O)[C@@H]3NC(=O)[C@H](CC(N)=O)NC(=O)[C@H](NC(=O)[C@@H](CC(C)C)NC)[C@H](O)c4ccc(c(Cl)c4)Oc4cc3cc(c4O[C@@H]3O[C@H](CO)[C@@H](O)[C@H](O)[C@H]3O)Oc3ccc(cc3Cl)[C@H]2O)c2ccc(O)c(c2)-c2c(O)cc(O)cc21)NC(=O)[C@H](CCCCN)NC(=O)[C@H](CCCCN)NC(=O)[C@H](CCCCNC(=O)c1ccc(Oc2ccc(F)cc2)cc1)NC(=O)c1ccc(Oc2ccc(F)cc2)cc1 [MCC_000651] | xxxxx (xxxxx = <0.01) | xxxx (xxxx = 0.01-<0.1) | xx (xx = 1-4)
4 | CNC(=O)C(CCCCNC(=O)C1NC(=O)C2NC(=O)C(NC(=O)C3NC(=O)C(CC(N)=O)NC(=O)C(NC(=O)C(CC(C)C)NC)C(O)c4ccc(c(Cl)c4)Oc4cc3cc(c4OC3OC(CO)C(O)C(O)C3OC3CC(C)(N)C(O)C(C)O3)Oc3ccc(cc3Cl)C2O)c2ccc(O)c(c2)-c2c(O)cc(O)cc21)NC(=O)C(CCCCN)NC(=O)C(CCCCN)NC(=O)CCCOc1ccccc1 (stereo not drawn) [MCC_000505] | xxx (xxx = 0.1-<1) | xx (xx = 1-4) | x (x = >4)
5 | CCCCCCCCCCC(=O)N[C@@H](CCCCN)C(=O)N[C@@H](CCCCN)C(=O)N[C@@H](CCCCN)C(=O)NCCNC(=O)[C@H]1NC(=O)[C@H]2NC(=O)[C@H](NC(=O)[C@@H]3NC(=O)[C@H](CC(N)=O)NC(=O)[C@H](NC(=O)[C@@H](CC(C)C)NC)[C@H](O)c4ccc(c(Cl)c4)Oc4cc3cc(c4O[C@@H]3O[C@H](CO)[C@@H](O)[C@H](O)[C@H]3O[C@H]3C[C@](C)(N)[C@H](O)[C@H](C)O3)Oc3ccc(cc3Cl)[C@H]2O)c2ccc(O)c(c2)-c2c(O)cc(O)cc21 [MCC_005182] | xxxxx (xxxxx = <0.01) | xxxx (xxxx = 0.01-<0.1) | xx (xx = 1-4)
6 | CCCCCCCC(=O)NC(CCCCN)C(=O)NC(CCCCN)C(=O)NC(CCCCNC(=O)C1NC(=O)C2NC(=O)C(NC(=O)C3NC(=O)C(CC(N)=O)NC(=O)C(NC(=O)C(CC(C)C)NC)C(O)c4ccc(c(Cl)c4)Oc4cc3cc(c4OC3OC(CO)C(O)C(O)C3OC3CC(C)(N)C(O)C(C)O3)Oc3ccc(cc3Cl)C2O)c2ccc(O)c(c2)-c2c(O)cc(O)cc21)C(=O)NC (stereo not drawn) [MCC_000489] | xx (xx = 1-4) | xxx (xxx = 0.1-<1) | x (x = >4)
7 | CCCCCCCCCOc1ccc(C(=O)NC(CCCCN)C(=O)NC(CCCCN)C(=O)NC(CCCCNC(=O)C2NC(=O)C3NC(=O)C(NC(=O)C4NC(=O)C(CC(N)=O)NC(=O)C(NC(=O)C(CC(C)C)NC)C(O)c5ccc(c(Cl)c5)Oc5cc4cc(c5OC4OC(CO)C(O)C(O)C4OC4CC(C)(N)C(O)C(C)O4)Oc4ccc(cc4Cl)C3O)c3ccc(O)c(c3)-c3c(O)cc(O)cc32)C(=O)NC)cc1 (stereo not drawn) [MCC_000504] | xxxxx (xxxxx = <0.01) | xxxxx (xxxxx = <0.01) | xxx (xxx = 0.1-<1)
8 | CCCCCCCCCCC(=O)N[C@@H](CCCCN)C(=O)N[C@@H](CCCCN)C(=O)N[C@@H](CCCCNC(=O)[C@H]1NC(=O)[C@H]2NC(=O)[C@H](NC(=O)[C@@H]3NC(=O)[C@H](CC(N)=O)NC(=O)[C@H](NC(=O)[C@@H](CC(C)C)NC)[C@H](O)c4ccc(c(Cl)c4)Oc4cc3cc(c4O[C@@H]3O[C@H](CO)[C@@H](O)[C@H](O)[C@H]3O[C@H]3C[C@](C)(N)[C@H](O)[C@H](C)O3)Oc3ccc(cc3Cl)[C@H]2O)c2ccc(O)c(c2)-c2c(O)cc(O)cc21)C(=O)NC [MCC_000292] | xxxx (xxxx = 0.01-<0.1) | xxxx (xxxx = 0.01-<0.1) | xx (xx = 1-4)
9 | CNC(=O)[C@H](CCCCNC(=O)[C@H]1NC(=O)[C@H]2NC(=O)[C@H](NC(=O)[C@@H]3NC(=O)[C@H](CC(N)=O)NC(=O)[C@H](NC(=O)[C@@H](CC(C)C)NC)[C@H](O)c4ccc(c(Cl)c4)Oc4cc3cc(c4O[C@@H]3O[C@H](CO)[C@@H](O)[C@H](O)[C@H]3O[C@H]3C[C@](C)(N)[C@H](O)[C@H](C)O3)Oc3ccc(cc3Cl)[C@H]2O)c2ccc(O)c(c2)-c2c(O)cc(O)cc21)NC(=O)[C@@H](CCCCN)NC(=O)[C@@H](CCCCN)NC(=O)[C@H](CCCCNC(=O)c1ccc(Oc2ccccc2)cc1)NC(=O)c1ccc(Oc2ccccc2)cc1 [MCC_000766] | xxxxx (xxxxx = <0.01) | xxxxx (xxxxx = <0.01) | xx (xx = 1-4)
10 | CCCCCCCCCCCCCC(=O)N[C@@H](CCCCN)C(=O)N[C@@H](CCCCN)C(=O)N[C@@H](CCCCN)C(=O)N[C@@H](CCCCNC(=O)[C@H]1NC(=O)[C@H]2NC(=O)[C@H](NC(=O)[C@@H]3NC(=O)[C@H](CC(N)=O)NC(=O)[C@H](NC(=O)[C@@H](CC(C)C)NC)[C@H](O)c4ccc(c(Cl)c4)Oc4cc3cc(c4O[C@@H]3O[C@H](CO)[C@@H](O)[C@H](O)[C@H]3O[C@H]3C[C@](C)(N)[C@H](O)[C@H](C)O3)Oc3ccc(cc3Cl)[C@H]2O)c2ccc(O)c(c2)-c2c(O)cc(O)cc21)C(=O)NC [MCC_000343] | xxxxx (xxxxx = <0.01) | xxxxx (xxxxx = <0.01) | xxxx (xxxx = 0.01-<0.1)
11 | CNC(=O)C(CCCCNC(=O)C1NC(=O)C2NC(=O)C(NC(=O)C3NC(=O)C(CC(N)=O)NC(=O)C(NC(=O)C(CC(C)C)NC)C(O)c4ccc(c(Cl)c4)Oc4cc3cc(c4OC3OC(CO)C(O)C(O)C3OC3CC(C)(N)C(O)C(C)O3)Oc3ccc(cc3Cl)C2O)c2ccc(O)c(c2)-c2c(O)cc(O)cc21)NC(=O)C(CCCCN)NC(=O)C(CCCCN)NC(=O)CCCCCCCCCc1ccccc1 (stereo not drawn) [MCC_000510] | xxxx (xxxx = 0.01-<0.1) | xxxxxx | xx (xx = 1-4)
12 | CNC(=O)C(CCCCNC(=O)C1NC(=O)C2NC(=O)C(NC(=O)C3NC(=O)C(CC(N)=O)NC(=O)C(NC(=O)C(CC(C)C)NC)C(O)c4ccc(c(Cl)c4)Oc4cc3cc(c4OC3OC(CO)C(O)C(O)C3OC3CC(C)(N)C(O)C(C)O3)Oc3ccc(cc3Cl)C2O)c2ccc(O)c(c2)-c2c(O)cc(O)cc21)NC(=O)C(CCCCN)NC(=O)C(CCCCN)NC(=O)CCCCCc1ccccc1 (stereo not drawn) [MCC_000507] | xxx (xxx = 0.1-<1) | xxx (xxx = 0.1-<1) | x (x = >4)
13 | CNC(=O)C(CCCCNC(=O)C1NC(=O)C2NC(=O)C(NC(=O)C3NC(=O)C(CC(N)=O)NC(=O)C(NC(=O)C(CC(C)C)NC)C(O)c4ccc(c(Cl)c4)Oc4cc3cc(c4OC3OC(CO)C(O)C(O)C3OC3CC(C)(N)C(O)C(C)O3)Oc3ccc(cc3Cl)C2O)c2ccc(O)c(c2)-c2c(O)cc(O)cc21)NC(=O)C(CCCCN)NC(=O)C(CCCCNC(=O)c1ccc(Oc2ccc(Cl)cc2)cc1)NC(=O)c1ccc(Oc2ccc(Cl)cc2)cc1 (stereo not drawn) [MCC_000517] | xxxx (xxxx = 0.01-<0.1) | xxxxxx | xxx (xxx = 0.1-<1)
14 | CNC(=O)C(CCCCNC(=O)C1NC(=O)C2NC(=O)C(NC(=O)C3NC(=O)C(CC(N)=O)NC(=O)C(NC(=O)C(CC(C)C)NC)C(O)c4ccc(c(Cl)c4)Oc4cc3cc(c4OC3OC(CO)C(O)C(O)C3OC3CC(C)(N)C(O)C(C)O3)Oc3ccc(cc3Cl)C2O)c2ccc(O)c(c2)-c2c(O)cc(O)cc21)NC(=O)C(CCCCN)NC(=O)C(CCCCN)NC(=O)c1ccc(Oc2ccc(Cl)cc2)cc1 (stereo not drawn) [MCC_000516] | xxxxxx | xxxxx (xxxxx = <0.01) | x (x = >4)
